Test results as given in article PMC7059793, “Novel Chemical Scaffolds to Inhibit the Neutral Amino Acid Transporter B^0AT1 (SLC6A19), a Potential Target to Treat Metabolic Diseases” (Frontiers in Pharmacology, 2020).

Assays:
B^0AT1 [1] = biological target: T1, B^0AT1 (Mus musculus, UniProt Q9D687); assay: Na+-dependent leucine uptake in inverted sections of mouse intestine; settings: 50 μM inhibitor, 150 μM [14C]leucine
T1 construct: from tissue; host or cells: small intestine of C57/BL6J female mice, inverted 1 cm sections
T1 sequence (Q9D687 whole entry): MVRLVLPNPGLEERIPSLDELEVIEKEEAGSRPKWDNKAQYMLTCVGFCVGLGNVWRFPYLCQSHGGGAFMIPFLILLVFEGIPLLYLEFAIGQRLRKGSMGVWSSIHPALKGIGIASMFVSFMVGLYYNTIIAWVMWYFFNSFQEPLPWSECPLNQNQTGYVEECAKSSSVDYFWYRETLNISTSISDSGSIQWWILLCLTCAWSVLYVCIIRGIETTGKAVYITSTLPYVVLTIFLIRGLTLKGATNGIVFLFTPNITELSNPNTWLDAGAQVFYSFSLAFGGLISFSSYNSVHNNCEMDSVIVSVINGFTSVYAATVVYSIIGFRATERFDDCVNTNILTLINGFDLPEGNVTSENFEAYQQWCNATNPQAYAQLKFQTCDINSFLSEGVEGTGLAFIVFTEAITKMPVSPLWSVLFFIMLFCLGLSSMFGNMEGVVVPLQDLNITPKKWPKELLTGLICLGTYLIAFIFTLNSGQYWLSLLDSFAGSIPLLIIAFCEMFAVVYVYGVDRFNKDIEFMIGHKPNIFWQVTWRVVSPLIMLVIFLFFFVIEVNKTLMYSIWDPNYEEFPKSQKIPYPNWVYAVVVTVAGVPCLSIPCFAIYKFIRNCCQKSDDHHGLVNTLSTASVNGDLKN
T1 sequence (Q8R0I0 18-805 partner): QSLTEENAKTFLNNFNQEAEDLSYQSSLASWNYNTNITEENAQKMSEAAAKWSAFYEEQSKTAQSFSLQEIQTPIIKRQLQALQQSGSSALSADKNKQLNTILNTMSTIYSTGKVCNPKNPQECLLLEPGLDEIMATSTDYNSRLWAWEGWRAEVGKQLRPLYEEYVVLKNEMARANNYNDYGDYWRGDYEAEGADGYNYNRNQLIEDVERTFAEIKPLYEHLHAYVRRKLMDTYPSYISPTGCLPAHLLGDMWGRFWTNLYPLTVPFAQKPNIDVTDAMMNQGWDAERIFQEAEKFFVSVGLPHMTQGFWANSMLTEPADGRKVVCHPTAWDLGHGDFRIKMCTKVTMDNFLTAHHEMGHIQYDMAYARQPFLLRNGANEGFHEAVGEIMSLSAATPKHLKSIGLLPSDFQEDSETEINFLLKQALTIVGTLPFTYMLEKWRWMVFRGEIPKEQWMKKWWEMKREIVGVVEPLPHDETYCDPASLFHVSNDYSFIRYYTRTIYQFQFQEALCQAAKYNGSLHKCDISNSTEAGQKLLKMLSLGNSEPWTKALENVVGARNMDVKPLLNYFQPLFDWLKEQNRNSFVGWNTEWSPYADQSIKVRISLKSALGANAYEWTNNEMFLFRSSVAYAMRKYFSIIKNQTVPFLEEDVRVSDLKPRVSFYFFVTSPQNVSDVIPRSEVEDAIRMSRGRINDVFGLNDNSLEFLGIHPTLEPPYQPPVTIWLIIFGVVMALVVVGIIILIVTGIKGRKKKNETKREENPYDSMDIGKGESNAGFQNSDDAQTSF
Source text: For uptake assays with inverted sections of mouse small intestine, 5–7 months old C57/BL6J female mice were sacrificed by cervical dislocation (Animal ethics protocol A2016/41, Australian National University). The small intestine was removed and the intestinal lumen was rinsed with ice-cold 0.9% NaCl. Subsequently, the small intestine was inverted on a metal rod to expose the mucosa. The inverted intestine was then cut into 1 cm pieces and fitted onto enzyme spatulas, which were immersed in HBSS pH 7.5 supplemented with 1 mM glutamine and protease inhibitor (Roche Complete). After washing twice in modified HBSS pH 7.5 (containing 10% NaCl + 90% NMDG-Cl for Na^+-dependent uptake and 100% NMDG-Cl for Na^+-independent uptake, both buffers supplemented with 1 mM glutamine) to remove residual compounds, the segments were pre-incubated in the same buffer in the presence of 50 µM of transport inhibitor and protease inhibitors for 15 min. At the end of the pre-incubation, the segments were transferred for 30 s into uptake buffer at 37°C (HBSS pH 7.5 supplemented with 150 μM [^14C]leucine and 50 µM transport inhibitor). For Na^+-dependent uptake regular HBSS was used, for Na^+-independent uptake NaCl was replaced by NMDG-Cl. Subsequently, the segments were rinsed three times in ice-cold HBSS pH 7.5 and lysed in 400 µl of 10% SDS. After 2–3 h, the lysed tissues were analyzed by scintillation counting.
To test whether the novel B^0AT1 inhibitors block the transporter in a more physiological environment, we studied leucine uptake in inverted sections of mouse intestine ( Figure 6C ). We established previously that Na^+-dependent leucine uptake (blue bars) in this system is mediated by B^0AT1 ([Broer et al., 2011]). In addition leucine uptake has a Na^+-independent transport component (salmon coloured bars), which is most likely mediated by rbat/b^0,+AT. Because of variability between animals, all data were normalized to uninhibited controls from the same animal.

B^0AT1 [2] = biological target: T2, B^0AT1 (Homo sapiens, UniProt Q695T7); assay: Membrane potential detecting FLIPR assay in CHO-BC cells; format: cell-based; settings: 30 min pre-incubation, leucine or isoleucine 1.5 mM
T2 construct: expressed in transfected cells
T2 sequence (Q695T7 1-634): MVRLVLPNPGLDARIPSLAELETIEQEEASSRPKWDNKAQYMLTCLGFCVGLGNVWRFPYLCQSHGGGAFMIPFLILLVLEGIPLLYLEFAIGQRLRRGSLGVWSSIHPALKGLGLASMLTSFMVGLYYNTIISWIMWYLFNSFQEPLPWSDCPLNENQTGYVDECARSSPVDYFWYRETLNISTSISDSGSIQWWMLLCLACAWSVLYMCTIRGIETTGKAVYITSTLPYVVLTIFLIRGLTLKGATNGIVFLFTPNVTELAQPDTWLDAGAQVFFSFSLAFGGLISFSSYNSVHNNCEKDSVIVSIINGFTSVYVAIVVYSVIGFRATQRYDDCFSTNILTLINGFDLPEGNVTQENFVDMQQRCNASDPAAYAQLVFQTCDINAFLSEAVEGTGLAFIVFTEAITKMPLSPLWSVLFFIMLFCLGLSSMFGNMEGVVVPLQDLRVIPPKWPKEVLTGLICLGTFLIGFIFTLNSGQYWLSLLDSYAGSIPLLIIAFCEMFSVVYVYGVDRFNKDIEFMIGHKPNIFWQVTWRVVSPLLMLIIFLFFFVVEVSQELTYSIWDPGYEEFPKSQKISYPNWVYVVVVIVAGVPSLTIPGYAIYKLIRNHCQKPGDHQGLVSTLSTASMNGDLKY
T2 sequence (Q9HBJ8 15-222 partner): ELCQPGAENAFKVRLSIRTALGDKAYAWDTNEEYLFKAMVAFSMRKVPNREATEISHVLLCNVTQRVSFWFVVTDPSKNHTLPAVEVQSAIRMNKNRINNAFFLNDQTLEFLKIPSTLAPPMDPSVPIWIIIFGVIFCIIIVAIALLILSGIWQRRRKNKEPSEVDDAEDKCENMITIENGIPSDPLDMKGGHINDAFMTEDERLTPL
Protocol: CHO-B^0AT1-collectrin Cells (CHO-BC) were generated, cultured, and used as described recently ([Cheng et al., 2017]). Expression levels of B^0AT1 in CHO-BC cells decline over time. As a result, passages <10 were used for experiments. The cells were maintained in Ham’s F-12 glutamax media with 10% (v/v) fetal bovine serum (FBS, Heat inactivated, 10082147 Gibco), 1mM glutamine, 300μg/ml hygromycin B and 275 μg/ml geneticin.
Membrane depolarisation induced by amino acid transport was monitored using a FLIPR® kit (Molecular Devices, R8042 BLUE DYE). Before the assay, CHO-BC cells were seeded out at a density of 60,000 cells/well and maintained in a flat transparent bottom 96-well plate (Corning) overnight. After washing three times with Hank’s balanced salt solution (136.6 mM NaCl, 5.4 mM KCl, 0.44 mM KH2PO4, 2.7mM Na2HPO4, 1.26mM CaCl2, 0.5mM MgCl2, 0.4 mM MgSO4, 10mM HEPES, pH 7.5, supplemented with 5 mM glucose, abbreviated HBSS + G), cells in each well were incubated for 30 min at room temperature in 50 µl of HBSS pH 7.5 containing 5 mM glucose and compounds as indicated, together with 50 µl of dye-loading buffer provided with the kit. Subsequently, the fluorescence signal was detected every 10 s before and after the addition of leucine or isoleucine at a final concentration of 1.5 mM. Fluorescence was detected at room temperature using a PerkinElmer multimode Plate Reader, with an excitation wavelength of 530 nm and emission wavelength of 565 nm.
Data are shown as mean ± S.D., transport activities indicated as Na^+-dependent net uptake, were calculated by subtracting the uptake activity in the absence of Na^+ from the total uptake rate. The fluorescent signals measured in the FLIPR assay were normalized to baseline readings before the addition of substrates. Data are presented as percentage of baseline at each time point. IC50 was calculated using the equation: y=ymax(1−[x]/[x]+IC50) .

With Cc1cc(C(=O)Nc2ccc(Cl)cc2C(F)(F)F)no1 [CB3] the “Inhibition of Na+-dependent leucine uptake (B^0AT1) ex vivo” value (shortened to “Inhibition”) (B^0AT1 [1]) was “more potent” and the IC50 (B^0AT1 [2]) was 1.9 ± 0.6 µM.

For Cc1cc(OCC(=O)NC(C)C)cc(C)c1Cl [Compound E4], the “Inhibition” value (B^0AT1 [1]) was “limited capacity to inhibit B^0AT1” and the IC50 (B^0AT1 [2]) was 13.7 ± 0.9 µM.

With COc1ccccc1Nc1nc2ccccc2s1 [Compound E18] the “Inhibition” value (B^0AT1 [1]) was “more potent” and the IC50 (B^0AT1 [2]) was 4.2 ± 0.9 µM.
